Columns and labels:
[1] = test system: Chinese hamster ovary cells; assay: standard mitotic inhibition test employing Chinese hamster ovary cells; format: cell-based; conditions: dose 20-2 mcg/ml for accumulation in mitosis; CHO cells
Text: As previously stated, the compounds of this invention are antimitotics, and can adversely affect the growth of malignant cells. This activity is manifested in a standard mitotic inhibition test employing Chinese hamster ovary cells.
In the Table, column 1 gives the name of the compound, column 2 gives the dose in mcg/ml for accumulation in mitosis and column 3, the percent mitotic accumulation as a range.

P388/V = assay: transplanted tumor in mice: P388/V; format: in vivo; conditions: every fourth day (three doses)
Description: (§1) The bases of this invention and their salts preparable by the processes disclosed herein are active also in vivo against some but not all transplanted tumors in mice.
(§2) The following table--Table 2--gives the results of this experiment in which mice bearing the transplanted tumor were treated with a compound of this invention. In the table, column 1 gives the name of the compound; column 2, the name of the tumor; column 3, the dosage given; and column 4, the percent inhibition of tumor growth (I) or prolongation of life (PL). The following dosage regimen was employed: every fourth day (three doses) starting on the first day after inoculation.

P388 = assay: transplanted tumor in mice: P388; format: in vivo; conditions: every fourth day (three doses)
Description: as §1, §2

Structure (SMILES) | percent mitotic accumulation as a range [1] | Percent Prolongation of life (PL) (P388/V; 1.5 mg/kg) [%] | Percent Prolongation of life (PL) (P388/V; 2.0 mg/kg, * = below 30, not statistically significant) [%] | Percent Prolongation of life (PL) (P388; P388, 1.0 mg/kg) [%] | Percent Prolongation of life (PL) (P388; P388, 1.2 mg/kg) [%] | Percent Prolongation of life (PL) (P388; P388, 1.4 mg/kg) [%]
CC[C@]1(O)C[C@H]2CN(CCc3c([nH]c4ccccc34)[C@@](C(=O)OC)(c3cc4c(cc3OC)N(C)[C@H]3[C@]5(OC(=O)N(CCSSCCNC(=O)OC)C5=O)[C@H](OC(C)=O)[C@]5(CC)C=CCN6CC[C@]43[C@@H]65)C2)C1 [Example 1, Vinblastine 3"-(β-[β-(methoxycarbonylamino)ethyldithio]ethyl)-3-spiro-5"-oxazolidine-2",4"-dione] | 7-10% | 30 | 25 | – | – | –
CC[C@]1(O)C[C@H]2CN(CCc3c([nH]c4ccccc34)[C@@](C(=O)OC)(c3cc4c(cc3OC)N(C)[C@H]3[C@]5(OC(=O)N(CCS)C5=O)[C@H](O)[C@]5(CC)C=CCN6CC[C@]43[C@@H]65)C2)C1 [4-desacetyl vinblastine 3"-(β-thioethyl)-3-spiro-5"-oxazolidine-2",4"-dione] | – | – | – | 52 | 65 | 77
CC[C@]1(O)C[C@H]2CN(CCc3c([nH]c4ccccc34)[C@@](C(=O)OC)(c3cc4c(cc3OC)N(C)[C@H]3[C@]5(OC(=O)N(CCS)C5=O)[C@H](OC(C)=O)[C@]5(CC)C=CCN6CC[C@]43[C@@H]65)C2)C1 [Example 2, Vinblastine 3"-(β-thioethyl)-3-spiro-5"-oxazolidine-2",4"-dione] | 10-15% | – | – | – | – | –
